Results from patent publication US20250339409A1, “USES OF PAN BET INHIBITORS” (VYNE THERAPEUTICS INC., priority 2021, published 2025).

System: imiquimod-induced psoriasis
Experiment: Imiquimod-induced psoriasis (Th17 inflammation) model in mice, topical treatment once daily D7-D13: PASI, modified PASI, body weight, use of enrichment, TEWL
Format: in vivo
Set-up: key to Mean score use enrichment: 0 = no use of dental rolls to 4 = use of all 4; key to PASI Mean score values: sum of erythema, induration, peeling scores, each 0-3 (0 = none)
Conditions: imiquimod-induced mice
Protocol: Thirty-six (36) female Balb/c mice are weighed and randomly divided into 9 groups (n=4) according to body weight on D1. For mice of native group 1 and tolerance groups 8 and 9, no induction of psoriasis is performed between D1 and D13. Psoriasis is induced in groups 2 to 7 by once daily topical application for 13 days (from day 1 to day 13) of 65 mg of Aldara™ cream (5.0% imiquimod) onto the shaved and epilated back of mice. Before the first treatment, a second randomization of mice of the 6 imiquimod-induced psoriasis groups is performed according to the severity of psoriasis (PASI), and also the body weight of mice. Starting on day 7 and until day 13, 100 mg of test formulations […] and 65 mg of vehicle (groups 1 and […]) are topically administered once daily for 7 consecutive days onto the shaved back skin of mice. Several measurements are taken during treatment period from day 7 to day 14: psoriasis index (PASI), body weight, use of enrichment and mortality. At the end of treatment period, TEWL is assessed, and blood and skin samples are collected. Histological analysis of skin samples is used for microscopic scoring of psoriasis and the determination of the thickness of parakeratosis and epidermis and blood analysis is used for assessing the level of proinflammatory biomarkers (cytokines assays). The effect of treatment of psoriasis induced mice with BETi formulations at the four dose levels are compared with Dermoval® cream containing 0.05% clobetasol propionate (reference) and vehicle (positive control) and also with healthy mice treated with vehicle (negative control).
PASI scoring takes into account the following 3 parameters: the presence of erythema on the skin, induration of the skin (thickening) and peeling of the skin at the area of the induction of psoriasis.
The presence of erythema on the skin at the area of induction of psoriasis with the following scoring grid: • 0=no or no more erythema on the skin, • 1=weak erythema on the skin, • 2=moderate erythema on the skin, • 3=important erythema on the skin.
The presence of induration of the skin at the area of induction of psoriasis with the following scoring grid: • 0=no or no more induration of the skin, • 1=weak induration of the skin, • 2=moderate induration of the skin, • 3=important induration of the skin.
The presence of peeling of the skin at the area of induction of psoriasis with the following scoring grid: • 0=no or no more dryness/peeling of the skin, • 1=weak dryness/peeling of the skin, • 2=moderate dryness/peeling of the skin, • 3=important dryness/peeling of the skin.
The sum of the mean scores of these 3 parameters result in the mean PASI score.
One of the issues with a steroid is that it causes skin thinning and continues to have an effect on no longer inflamed skin and the model set up and measurements above are not designed to reflect this negative effect. Therefore, a modified PASI (mPASI) is calculated in the same the manner as mean PASI score but excludes the scoring for induration (thickening of the skin).
Mice are weighed three times during the week of D1 to D7, and then daily during the week of D7 to D13, as well as on the day D14 when they are sacrificed. It should be noted that a characteristic body weight loss of mice is observed after the start of the induction of psoriasis, mainly during the first days following it. The body weight loss can reach between 10 to 15%.
For the duration of the experiment, dental rolls are used as enrichment and placed in each cage and replaced twice. Between D1 and D7, the number of dental rolls used by animals are determined twice in the morning, and are determined daily during D7 to D14, at the time of PASI or the tolerance assessment. The use of dental rolls is scored from 0=no use of dental rolls to 4=use of the 4 dental rolls. In the case where only half of a dental roll is used, a score of 0.5 is assigned. […]

Cn1cc(-c2cccc(O)c2Oc2ccccc2)c2cc[nH]c2c1=O [BETi1]
PASI Mean score values (D 7): 8.00
Modified PASI Mean score values (D 7, listed as BETI1 0.01%): 5.75
Modified PASI Mean score values (D 7, listed as BETI1 0.1%): 5.75
Modified PASI Mean score values (D 7, listed as BETI1 1.0%): 5.50
Mean score use enrichment (D 7, listed as BETi 0.001%): 4.00
Mean score use enrichment (D 7, listed as BETi 0.01%): 3.50
Mean score use enrichment (D 7, listed as BETi 0.1%): 3.00
Modified PASI Mean score values (D 7, listed as BETi1 0.001%): 5.50
Mean score use enrichment (D 7, listed as BETi 1.0%): 2.00
Mean score use enrichment (D 8-D 14, listed as BETi 0.001%): 3.17
Mean score use enrichment (D 8-D 14, listed as BETi 0.01%): 3.58
Mean score use enrichment (D 8-D 14, listed as BETi 0.1%): 3.75
Mean score use enrichment (D 8-D 14, listed as BETi 1.0%): 3.58
Modified PASI Mean score values (D 8, listed as BETI1 0.1%): 6.00
PASI Mean score values (D 8, listed as BETI1 0.1%): 8.50
Modified PASI Mean score values (D 8, listed as BETI1 1.0%): 6.25
PASI Mean score values (D 8, listed as BETI1 1.0%): 9.00
Mean score use enrichment (D 8, listed as BETi 0.001%): 4.00
Mean score use enrichment (D 8, listed as BETi 0.01%): 4.00
Mean score use enrichment (D 8, listed as BETi 0.1%): 3.25
Modified PASI Mean score values (D 8, listed as BETi1 0.001%): 7.00
PASI Mean score values (D 8, listed as BETi1 0.001%): 10.00
Modified PASI Mean score values (D 8, listed as BETi1 0.01%): 5.50
PASI Mean score values (D 8, listed as BETi1 0.01%): 8.25
Mean score use enrichment (D 8, listed as BETi 1.0%): 2.25
Modified PASI Mean score values (D 9, listed as BETI1 0.1%): 4.50
PASI Mean score values (D 9, listed as BETI1 0.1%): 7.25
Modified PASI Mean score values (D 9, listed as BETI1 1.0%): 5.75
PASI Mean score values (D 9, listed as BETI1 1.0%): 8.50
Mean score use enrichment (D 9, listed as BETi 0.001%): 1.00
Mean score use enrichment (D 9, listed as BETi 0.01%): 2.25
Mean score use enrichment (D 9, listed as BETi 0.1%): 2.75
Modified PASI Mean score values (D 9, listed as BETi1 0.001%): 6.25
PASI Mean score values (D 9, listed as BETi1 0.001%): 9.25
Modified PASI Mean score values (D 9, listed as BETi1 0.01%): 4.00
PASI Mean score values (D 9, listed as BETi1 0.01%): 6.75
Mean score use enrichment (D 9, listed as BETi 1.0%): 2.00
Modified PASI Mean score values (D 10, listed as BETI1 0.1%): 2.75
PASI Mean score values (D 10, listed as BETI1 0.1%): 4.50
Modified PASI Mean score values (D 10, listed as BETI1 1.0%): 4.75
PASI Mean score values (D 10, listed as BETI1 1.0%): 7.25
Mean score use enrichment (D 10, listed as BETi 0.001%): 2.25
Mean score use enrichment (D 10, listed as BETi 0.01%): 3.25
Mean score use enrichment (D 10, listed as BETi 0.1%): 3.75
Modified PASI Mean score values (D 10, listed as BETi1 0.001%): 5.50
PASI Mean score values (D 10, listed as BETi1 0.001%): 8.50
Modified PASI Mean score values (D 10, listed as BETi1 0.01%): 3.50
PASI Mean score values (D 10, listed as BETi1 0.01%): 6.00
Mean score use enrichment (D 10, listed as BETi 1.0%): 3.00
Modified PASI Mean score values (D 11, listed as BETI1 0.1%): 1.25
PASI Mean score values (D 11, listed as BETI1 0.1%): 2.75
Modified PASI Mean score values (D 11, listed as BETI1 1.0%): 3.50
PASI Mean score values (D 11, listed as BETI1 1.0%): 5.50
Mean score use enrichment (D 11, listed as BETi 0.001%): 3.75
Mean score use enrichment (D 11, listed as BETi 0.01%): 4.00
Mean score use enrichment (D 11, listed as BETi 0.1%): 4.00
Modified PASI Mean score values (D 11, listed as BETi1 0.001%): 5.50
PASI Mean score values (D 11, listed as BETi1 0.001%): 8.00
Mean body weights (D 11, listed as BETi1 0.01%): 17.93
Modified PASI Mean score values (D 11, listed as BETi1 0.01%): 2.75
PASI Mean score values (D 11, listed as BETi1 0.01%): 5.00
Mean score use enrichment (D 11, listed as BETi 1.0%): 3.50
Modified PASI Mean score values (D 12, listed as BETI1 0.1%): 0.50
PASI Mean score values (D 12, listed as BETI1 0.1%): 1.00
Modified PASI Mean score values (D 12, listed as BETI1 1.0%): 4.25
PASI Mean score values (D 12, listed as BETI1 1.0%): 7.25
Mean score use enrichment (D 12, listed as BETi 0.001%): 4.00
Mean score use enrichment (D 12, listed as BETi 0.01%): 4.00
Mean score use enrichment (D 12, listed as BETi 0.1%): 4.00
Modified PASI Mean score values (D 12, listed as BETi1 0.001%): 4.50
PASI Mean score values (D 12, listed as BETi1 0.001%): 6.00
Modified PASI Mean score values (D 12, listed as BETi1 0.01%): 1.00
PASI Mean score values (D 12, listed as BETi1 0.01%): 2.25
Mean score use enrichment (D 12, listed as BETi 1.0%): 2.25
Modified PASI Mean score values (D 13, listed as BETI1 0.1%): 0.50
PASI Mean score values (D 13, listed as BETI1 0.1%): 1.00
Modified PASI Mean score values (D 13, listed as BETI1 1.0%): 3.25
PASI Mean score values (D 13, listed as BETI1 1.0%): 5.25
Mean score use enrichment (D 13, listed as BETi 0.001%): 4.00
Mean score use enrichment (D 13, listed as BETi 0.01%): 4.00
Mean score use enrichment (D 13, listed as BETi 0.1%): 4.00
Modified PASI Mean score values (D 13, listed as BETi1 0.001%): 4.00
PASI Mean score values (D 13, listed as BETi1 0.001%): 5.50
Modified PASI Mean score values (D 13, listed as BETi1 0.01%): 1.75
PASI Mean score values (D 13, listed as BETi1 0.01%): 2.75
Mean score use enrichment (D 13, listed as BETi 1.0%): 2.75
Mean score use enrichment (D 14): 4.00
Mean TEWL score values (D14, Lower back, listed as BETi1 1.0%): 30.63 g/h/m2
Mean TEWL score values (D14, Lower back, listed as BETi10.001%): 42.11 g/h/m2
Mean TEWL score values (D14, Lower back, listed as BETi10.01%): 57.25 g/h/m2
Mean TEWL score values (D14, Lower back, listed as BETi10.1%): 39.27 g/h/m2
Mean TEWL score values (D14, Mean, listed as BETi1 1.0%): 38.60 g/h/m2
Mean TEWL score values (D14, Mean, listed as BETi10.001%): 40.35 g/h/m2
Mean TEWL score values (D14, Mean, listed as BETi10.01%): 39.55 g/h/m2
Mean TEWL score values (D14, Mean, listed as BETi10.1%): 27.14 g/h/m2
Mean TEWL score values (D14, Mid back, listed as BETi1 1.0%): 40.80 g/h/m2
Mean TEWL score values (D14, Mid back, listed as BETi10.001%): 41.26 g/h/m2
Mean TEWL score values (D14, Mid back, listed as BETi10.01%): 34.53 g/h/m2
Mean TEWL score values (D14, Mid back, listed as BETi10.1%): 24.04 g/h/m2
Mean TEWL score values (D14, Upper back, listed as BETi1 1.0%): 44.36 g/h/m2
Mean TEWL score values (D14, Upper back, listed as BETi10.001%): 37.67 g/h/m2
Mean TEWL score values (D14, Upper back, listed as BETi10.01%): 26.87 g/h/m2
Mean TEWL score values (D14, Upper back, listed as BETi10.1%): 18.11 g/h/m2
Modified PASI Mean score values (D 14, listed as BETI1 0.1%): 0.50
PASI Mean score values (D 14, listed as BETI1 0.1%): 1.25
Modified PASI Mean score values (D 14, listed as BETI1 1.0%): 3.50
PASI Mean score values (D 14, listed as BETI1 1.0%): 5.00
Modified PASI Mean score values (D 14, listed as BETi1 0.001%): 3.75
PASI Mean score values (D 14, listed as BETi1 0.001%): 5.50
Modified PASI Mean score values (D 14, listed as BETi1 0.01%): 1.50
PASI Mean score values (D 14, listed as BETi1 0.01%): 2.25
clinical signs (end of treatment): substantial resolution of clinical signs
dermal tolerance (topical 7 days): no evidence of dermal tolerance issues
reduction in mPASI score (composite inflammation severity score) relative to vehicle control group (treatment Day 7): 94%
Absolute Body Weight Change from day 1 to day 14, D14 − D1, individual mouse (listed as BETi1 -0.001%): 1.58
